Measurements reported in paper PMC9090415, “Discovery of small molecule inhibitors of Plasmodium falciparum apicoplast DNA polymerase” (Journal of Enzyme Inhibition and Medicinal Chemistry, 2022).

Target: P. falciparum apicoplast DNA polymerase (Pf-apPOL) (Plasmodium falciparum, UniProt Q8ILY1)
Assay: Fluorescence-based high-throughput DNA polymerase assay (molecular beacon), primary screen and dose-response
Assay type: biochemical
Details: for DNA Pol: 90 min, 10 µM; for % inhibition apPOL 180' 2.5 / % inhibition apPOL 180' 5 / % inhibition apPOL 180' 10 / % inhibition apPOL 180' 20 / % inhibition apPOL 180' 40 / % inhibition apPOL 180' 80: read at 180'
In short: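 Single-point screening used 10 µM compound with 20 nM polymerase, 20 nM hairpin substrate and 6 µM dNTPs for 90 min at 25 °C. Confirmatory titrations (2.5–80 µM) followed fluorescence at three times, and IC50 was derived from a fit including a cooperativity term n.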

P. falciparum apicoplast DNA polymerase (Pf-apPOL), sequence (Q8ILY1 entry or part of it): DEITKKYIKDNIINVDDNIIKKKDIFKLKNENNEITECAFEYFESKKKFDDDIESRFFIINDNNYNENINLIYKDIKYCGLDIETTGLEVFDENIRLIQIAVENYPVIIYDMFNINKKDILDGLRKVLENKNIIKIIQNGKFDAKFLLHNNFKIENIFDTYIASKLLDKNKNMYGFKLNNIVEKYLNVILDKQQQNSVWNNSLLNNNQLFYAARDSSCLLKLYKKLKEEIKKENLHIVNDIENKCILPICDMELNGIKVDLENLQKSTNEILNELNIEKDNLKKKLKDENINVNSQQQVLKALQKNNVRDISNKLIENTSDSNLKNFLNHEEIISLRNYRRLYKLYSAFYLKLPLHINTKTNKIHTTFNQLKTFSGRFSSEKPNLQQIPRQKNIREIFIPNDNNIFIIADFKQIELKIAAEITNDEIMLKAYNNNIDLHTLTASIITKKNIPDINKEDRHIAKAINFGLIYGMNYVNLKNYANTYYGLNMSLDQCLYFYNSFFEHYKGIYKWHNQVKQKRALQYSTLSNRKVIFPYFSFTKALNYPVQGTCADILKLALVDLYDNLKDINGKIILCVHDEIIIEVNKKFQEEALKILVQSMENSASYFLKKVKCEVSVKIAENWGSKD

Question: For `COc1ccc(CNC(=O)Cn2nc3c(c2NC(=O)Cc2cccs2)CSC3)cc1` [Molecule 55, COc1ccc(cc1)CNC(=O)Cn1nc2c(c1NC(=O)Cc1cccs1)CSC2], which “DNA Pol” value ('DNA Pol' of the 186 hits list (primary screen value)) is on record?
Answer: 42

Question: What about the “DNA Pol” value (DNA Pol (primary screen value)) of the same compound?
Answer: 42

Question: And the “% inhibition Apo pol 10'” value (DRC-1, concentration 2.5)?
Answer: 7.186%

Question: And the “% inhibition Apo pol 10'” value (DRC-1, concentration 5)?
Answer: 13.7887%

Question: What about the “% inhibition Apo pol 10'” value (DRC-1, concentration 10) of the same compound?
Answer: 43.1349%

Question: What about the “% inhibition Apo pol 10'” value (DRC-1, concentration 20) of the same compound?
Answer: 61.7989%

Question: What about the “% inhibition Apo pol 10'” value (DRC-1, concentration 40) of the same compound?
Answer: 74.6193%

Question: And the “% inhibition Apo pol 10'” value (DRC-1, concentration 80)?
Answer: 82.9138%

Question: What about the “% inhibition Apol 90'” value (DRC-1, concentration 2.5) of the same compound?
Answer: -3.211%

Question: What about the “% inhibition Apol 90'” value (DRC-1, concentration 5) of the same compound?
Answer: 0.071%

Question: What about the “% inhibition Apol 90'” value (DRC-1, concentration 10) of the same compound?
Answer: 21.9926%

Question: And the “% inhibition Apol 90'” value (DRC-1, concentration 20)?
Answer: 39.7839%

Question: And the “% inhibition Apol 90'” value (DRC-1, concentration 40)?
Answer: 59.3907%

Question: What about the “% inhibition Apol 90'” value (DRC-1, concentration 80) of the same compound?
Answer: 77.3387%

Question: What about the “% inhibition apPOL 180'” value (DRC-1, concentration 2.5) of the same compound?
Answer: -10.7492%

Question: What about the “% inhibition apPOL 180'” value (DRC-1, concentration 5) of the same compound?
Answer: -8.12%

Question: And the “% inhibition apPOL 180'” value (DRC-1, concentration 10)?
Answer: 5.391%

Question: And the “% inhibition apPOL 180'” value (DRC-1, concentration 20)?
Answer: 18.5765%

Question: What about the “% inhibition apPOL 180'” value (DRC-1, concentration 40) of the same compound?
Answer: 40.1483%

Question: What about the “% inhibition apPOL 180'” value (DRC-1, concentration 80) of the same compound?
Answer: 66.9877%

Question: And the “% inhibition Apo pol 5'” value (DRC-2, concentration 2.5)?
Answer: -0.186%

Question: And the “% inhibition Apo pol 5'” value (DRC-2, concentration 5)?
Answer: -3.35%

Question: And the “% inhibition Apo pol 5'” value (DRC-2, concentration 10)?
Answer: 16%

Question: What about the “% inhibition Apo pol 5'” value (DRC-2, concentration 20) of the same compound?
Answer: 23%

Question: And the “% inhibition Apo pol 5'” value (DRC-2, concentration 40)?
Answer: 32%

Question: What about the “% inhibition Apo pol 5'” value (DRC-2, concentration 80) of the same compound?
Answer: 26%

Question: What about the “% inhibition Apol 40'” value (DRC-2, concentration 2.5) of the same compound?
Answer: -0.881%

Question: And the “% inhibition Apol 40'” value (DRC-2, concentration 5)?
Answer: -4.6%

Question: And the “% inhibition Apol 40'” value (DRC-2, concentration 10)?
Answer: 17%

Question: And the “% inhibition Apol 40'” value (DRC-2, concentration 20)?
Answer: 23%

Question: And the “% inhibition Apol 40'” value (DRC-2, concentration 40)?
Answer: 47%

Question: And the “% inhibition Apol 40'” value (DRC-2, concentration 80)?
Answer: 53%

Question: And the “% inhibition ApPOL 90'” value (DRC-2, concentration 2.5)?
Answer: -1.87%

Question: And the “% inhibition ApPOL 90'” value (DRC-2, concentration 5)?
Answer: -7%

Question: And the “% inhibition ApPOL 90'” value (DRC-2, concentration 10)?
Answer: 13%

Question: And the “% inhibition ApPOL 90'” value (DRC-2, concentration 20)?
Answer: 19%

Question: And the “% inhibition ApPOL 90'” value (DRC-2, concentration 40)?
Answer: 45%

Question: What about the “% inhibition ApPOL 90'” value (DRC-2, concentration 80) of the same compound?
Answer: 63%

Question: And the “% inhibition apPOL 180'” value (DRC-2, concentration 2.5)?
Answer: -6.63%

Question: What about the “% inhibition apPOL 180'” value (DRC-2, concentration 5) of the same compound?
Answer: -14%

Question: And the “% inhibition apPOL 180'” value (DRC-2, concentration 10)?
Answer: 1.41%

Question: What about the “% inhibition apPOL 180'” value (DRC-2, concentration 20) of the same compound?
Answer: 5%

Question: What about the “% inhibition apPOL 180'” value (DRC-2, concentration 40) of the same compound?
Answer: 35%

Question: And the “% inhibition apPOL 180'” value (DRC-2, concentration 80)?
Answer: 65%

Question: Which results are given for `Cc1ccc(N2CCC(NC(=O)Cc3cccs3)C2=O)cc1C` (centres unmarked) [Molecule 57, O=C(NC1CCN(C1=O)c1ccc(c(c1)C)C)Cc1cccs1]?
Answer: DNA Pol (186 hits, DNA Pol (screen value), unit not given): 30; DNA Pol ('DNA Pol' (screen value), unit not given): 30; % inhibition Apo pol 10' 2.5 (DRC-1, read at 10', concentration 2.5): -4.081%; % inhibition Apo pol 10' 5 (DRC-1, read at 10', concentration 5): 5.106%; % inhibition Apo pol 10' 10 (DRC-1, read at 10', concentration 10): 22.9359%; % inhibition Apo pol 10' 20 (DRC-1, read at 10', concentration 20): 41.5954%; % inhibition Apo pol 10' 40 (DRC-1, read at 10', concentration 40): 44.443%; % inhibition Apo pol 10' 80 (DRC-1, read at 10', concentration 80): 44.3208%; % inhibition Apol 90' 2.5 (DRC-1, read at 90', concentration 2.5): -2.123%; % inhibition Apol 90' 5 (DRC-1, read at 90', concentration 5): 4.8282%; % inhibition Apol 90' 10 (DRC-1, read at 90', concentration 10): 19.3171%; % inhibition Apol 90' 20 (DRC-1, read at 90', concentration 20): 42.7079%; % inhibition Apol 90' 40 (DRC-1, read at 90', concentration 40): 53.5477%; % inhibition Apol 90' 80 (DRC-1, read at 90', concentration 80): 61.4172%; % inhibition apPOL 180' 2.5 (DRC-1, concentration 2.5): -1.073%; % inhibition apPOL 180' 5 (DRC-1, concentration 5): 1.4295%; % inhibition apPOL 180' 10 (DRC-1, concentration 10): 11.4485%; % inhibition apPOL 180' 20 (DRC-1, concentration 20): 30.1368%; % inhibition apPOL 180' 40 (DRC-1, concentration 40): 47.6529%; % inhibition apPOL 180' 80 (DRC-1, concentration 80): 62.3607%; % inhibition Apo pol 5' (DRC-2, concentration 10): 24%; % inhibition Apo pol 5' (DRC-2, concentration 20): 24%; % inhibition ApPOL 90' (DRC-2, concentration 20): 47%; % inhibition ApPOL 90' (DRC-2, concentration 40): 47%; % inhibition Apo pol 5' 2.5 (DRC-2, read at 5', concentration 2.5): -1.72%; % inhibition Apo pol 5' 5 (DRC-2, read at 5', concentration 5): 2.54%; % inhibition Apo pol 5' 10 (DRC-2, read at 5', concentration 10): 24%; % inhibition Apo pol 5' 20 (DRC-2, read at 5', concentration 20): 24%; % inhibition Apo pol 5' 40 (DRC-2, read at 5', concentration 40): 6.44%; % inhibition Apo pol 5' 80 (DRC-2, read at 5', concentration 80): -4.26%; % inhibition Apol 40' 2.5 (DRC-2, read at 40', concentration 2.5): -1.82%; % inhibition Apol 40' 5 (DRC-2, read at 40', concentration 5): 5.58%; % inhibition Apol 40' 10 (DRC-2, read at 40', concentration 10): 32%; % inhibition Apol 40' 20 (DRC-2, read at 40', concentration 20): 44%; % inhibition Apol 40' 40 (DRC-2, read at 40', concentration 40): 39%; % inhibition Apol 40' 80 (DRC-2, read at 40', concentration 80): 37%; % inhibition ApPOL 90' 2.5 (DRC-2, read at 90', concentration 2.5): -2.11%; % inhibition ApPOL 90' 5 (DRC-2, read at 90', concentration 5): 5%; % inhibition ApPOL 90' 10 (DRC-2, read at 90', concentration 10): 30%; % inhibition ApPOL 90' 20 (DRC-2, read at 90', concentration 20): 47%; % inhibition ApPOL 90' 40 (DRC-2, read at 90', concentration 40): 47%; % inhibition ApPOL 90' 80 (DRC-2, read at 90', concentration 80): 48%; % inhibition apPOL 180' 2.5 (DRC-2, concentration 2.5): -1.11%; % inhibition apPOL 180' 5 (DRC-2, concentration 5): 3.34%; % inhibition apPOL 180' 10 (DRC-2, concentration 10): 22%; % inhibition apPOL 180' 20 (DRC-2, concentration 20): 43%; % inhibition apPOL 180' 40 (DRC-2, concentration 40): 49%; % inhibition apPOL 180' 80 (DRC-2, concentration 80): 55%
